Test results taken from patent publication US20180256496A1, “CONTROLLED-RELEASE FORMULATIONS” (Camurus AB, priority 2015, published 2018).

Design: species or system dog (beagle)
Conditions: dog, in vivo, sc
Method: The in vivo release profiles of granisetron and buprenorphine after subcutaneous injection of Formulations 7A and 7B (Example 7) in dog (beagle) was evaluated using the doses set out in Table 13. The animals were dosed on Days 1 and 8 with the respective formulation.
A validated bioanalytical method was used for the determination of GRN in dog plasma. The analytical method employed liquid chromatography with tandem mass spectrometric detection. The lower limit of quantification of the analytical method was 0.05 ng/mL. The calibration curve ranged from 0.05 to 50.0 ng/mL. Samples above the upper limit of quantitation were diluted into range using control beagle K2-EDTA plasma.

## CN1[C@@H]2CCC[C@H]1C[C@@H](NC(=O)c1nn(C)c3ccccc13)C2 [granisetron]
  dose linearity with respect to exposure (AUC): dose linearity was indicated
